Reference: patent US6147073A, “Substituted tetralymethylen-Oxindoles analogues as tyrosine kinase inhibitors” (Pharmacia & Upjohn S.p.A., priority 1996, dated 2000)
Counter-ions that a name gives are not always drawn.

Columns and labels:
[1] = system: K562 cells; assay: K562 Cell Growth Inhibition Assay; assay type: cell-based; details: human myelogenous leukemia cell line, cell count after 72 h vs untreated control
Procedure: K562 cells, a human myelogenous leukemia cell line, were seeded into a 24 wells tissue culture plate (Falcon 3047) (10000/well) in the presence of increasing concentrations of the compounds.
After 72 h, cells were harvested and were counted using a cell counter (Coulter Counter-ZM). The percent of inhibition was evaluated in respect to the untreated control cells.

[2] = target: p45 v-abl tyrosine kinase; assay: p45 v-abl Kinase Assay ((Val^5)-angiotensin II phosphorylation); assay type: biochemical, Abelson murine leukemia virus; details: purified abl-kinase 40 ng; peptide 2 mM, ATP 50 μM; pH 8.0, 30° C.
Procedure: The enzyme used in our tests is the p45 v-abl tyrosine kinase which represents the catalytic domain of the Abelson tyrosine kinase (isolated from the Abelson murine leukemia virus). The p45 v-abl kinase is produced and isolated as described by Wang et al. in J.Biol.Chem. 260, 64 (1985) and by Ferguson et al. in J.Biol.Chem. 260, 3652 (1985) and in Biochem.J. 257, 321 (1989).
(Val^5)-angiotensin II phosphorylation is performed by incubation with 40 ng of purified abl-kinase and (γ-^32 P) ATP, in 50 μl of buffer containing Tris-HCl 25 mM, pH 8.0, MgCl2 10 mM and dithiothreitol 0.1 mM (kinase buffer). The reaction mixture is incubated for the indicated time at 30° C. and the reaction stopped by adding 50 μl of 5% trichloracetic acid. After a brief incubation on ice the tubes are centrifuged. The supernatants are spotted on phosphocellulase paper squares (Whatman P-81) and washed extensively in acetic acid. The radioactivity bound to dried phosphocellulose squares is measured in a liquid scintillation counter. IC50 values are calculated from triplicated determination of each experimental point. Each inhibitor is tested at concentrations ranging from […] in the presence of fixed concentrations of peptide (2 mM) and ATP (50 μM).

## CC(N)C(=O)Nc1ccc2c(c1)C(=Cc1cc(O)c3c(c1O)CCCC3)C(=O)N2 (centres unmarked) [5-(alanylamino)-3-(1,4-dihydroxy-2-tetralylmethylen)-2-oxindole]
[1]; K562
  IC50: 8.31 µM
[2]
  IC50: 10 µM

## CC(N)C(=O)NC(C)C(=O)Nc1ccc2c(c1)C(=Cc1cc(O)c3c(c1O)CCCC3)C(=O)N2 (centres unmarked) [5-(alanylalanylamino)-3-(1,4-dihydroxy-2-tetralylmethylen)-2-oxindole trifluoroacetate]
[1]; K562
  IC50: 5.3 µM
[2]
  IC50: 3.12 µM

## CC(NC(=O)OC(C)(C)C)C(=O)Nc1ccc2c(c1)C(=Cc1cc(O)c3c(c1O)CCCC3)C(=O)N2 (centres unmarked) [5-(N-tert-butoxycarbonylalanylamino)-3-(1,4-dihydroxy-2-tetralylmethylen)-2-oxindole]
[1]; K562
  IC50: 5.86 µM
[2]
  IC50: 1.56 µM

## NC(CCC(=O)O)C(=O)Nc1ccc2c(c1)C(=Cc1cc(O)c3c(c1O)CCCC3)C(=O)N2 (centres unmarked) [5-(glutamylamino)-3-(1,4-dihydroxy-2-tetralylmethylen)-2-oxindole]
[1]
  IC50: 5.97 µM
[2]
  IC50: 10 µM
